In patent US20130210846A1, “USE OF NOVEL PAN-CDK INHIBITORS FOR TREATING TUMORS” (BAYER INTELLECTUAL PROPERTY GMBH, priority 2010, published 2013):

Experiments:
MOLM-13 = assay: Proliferation assay MOLM-13; assay type: cell-based; details: Homo sapiens, 96 h; MOLM-13, leukemia; 4 days, crystal violet
Protocol: Cultivated human tumor cells (originally obtained from ATCC, HeLa-MaTu and HeLa-MaTu-ADR, originally obtained from Epo GmbH, Berlin, Germany) were plated at a density of 1000 to 5000 cells/measuring point, depending on the growth rate of the cell line, in a 96-well multititer plate in 200 μl of growth medium (DMEM/HAMS F12, 2 mM L-glutamine, 10% fetal calf serum). After 24 hours the cells of one plate (zero-point plate) were stained with crystal violet (see below), whereas the medium of the other plates was replaced with fresh culture medium (200 μl), to which the test substances had been added at various concentrations (0 μM, and in the range 0.01-30 μM; the final concentration of the solvent dimethyl sulfoxide was 0.5%). The cells were incubated for 4 days in the presence of the test substances. Cellular proliferation was determined by staining the cells with crystal violet: the cells were fixed by adding 20 μl/measuring point of an 11% glutaraldehyde solution for 15 min at room temperature. […] The extinction was determined photometrically at a wavelength of 595 nm. The percentage change in cell growth was calculated by standardization of the measured values to the extinction values of the zero-point plate (=0%) and the extinction of the untreated (0 μM) cells (=100%). […] The IC50 values were determined by means of a 4-parameter fit using the company's own software. […]

[1] = tested on: A2780-Cis cisplatin-resistant human ovarial tumor cells; assay: A2780-Cis human ovarial tumor model; assay type: in vivo, female NMRI nude mice
Description: (§1) Tumor cells grown in cell culture were implanted subcutaneously in the flank of female or male NMRI nude mice. The treatment was started as soon as the tumors had grown to a size of approx. 20 mm^2 The study was ended as soon as the tumors in one of the groups reached a size of approx. 150 mm^2.
(§2) Vehicle group: treatment with solubilizer (40% PEG400/60% water)
(§3) The studies were designed for determining the initial response of the human tumor model to the treatment with the Exemplary compound 2-SI-2. Tumor growth inhibition in percent (TGI) was either calculated at the end of the studies from the tumor weights (TGITW) using the formula 100×[1−(tumor weight of the treatment group/tumor weight of the vehicle group)], or on the day the vehicle group had to be ended from the tumor areas (TGITA) using the formula 100×[1−(tumor area of the treatment group on the day of the measurement−tumor area of the treatment group prior to treatment)/(tumor area of the vehicle group on the day of the measurement−tumor area of the vehicle group prior to treatment)]. In the case of a tumor growth inhibition of more than 50%, the treatment was considered to have been effective.
Efficacy in the A2780-Cis human ovarial tumor model.
Efficacy in the A2780-Cis human ovarial tumor model A2780-Cis cisplatin-resistant human ovarial tumor cells implanted into female NMRI nude mice.
• a) 0.20 mg/ml of Example 2-SI-2 in 40% (v/v) PEG 400 in water • b) 0.15 mg/ml of Example 2-SI-2 in 40% (v/v) PEG 400 in water • c) 0.17 mg/ml of Example 2-SI-2 in 40% (v/v) PEG 400 in water
• a) 2.0 mg/kg (6.0 mg/m^2), 1× per day. • b) 1.5 mg/kg (4.5 mg/m^2), 2× per day on 3 successive days, followed by 4 treatment-free days. • c) 1.7 mg/kg (5.1 mg/m^2), 2× per day on 3 successive days, followed by 4 treatment-free days.

[2] = tested on: HeLa-MaTu human cervix carcinoma cells; assay: HeLa-MaTu human cervix carcinoma xenograft model; assay type: in vivo, female NMRI nude mice
Description: as §1, §2, §3
Efficacy in the HeLa-MaTu human cervix carcinoma xenograft model
HeLa-MaTu human cervix carcinoma cells implanted into female NMRI nude mice
• a) 0.05 mg/ml, 0.10 mg/ml, 0.15 mg/ml, 0.2 mg/ml of Example 2-SI-2 in 40% (v/v) PEG 400 in water • b) 0.15 mg/ml, 0.2 mg/ml, 0.25 mg/ml of Example 2-SI-2 in 40% (v/v) PEG 400 in water
• a) 0.5 to 2.0 mg/kg (1.5 to 6.0 mg/m^2) 1× per day b) 1.5 to 2.5 mg/kg (4.5 to 7.5 mg/m^2) 2× per day on 2 successive days, followed by 5 treatment-free days

[3] = tested on: NCI-H146 human small-cell lung tumor cells; assay: NCI-H146 human small-cell lung tumor model; assay type: in vivo, female NMRI nude mice
Description: as §1, §2, §3
Efficacy in the NCI-H146 human small-cell lung tumor model.
NCI-H146 human small-cell lung tumor cells implanted into female NMRI nude mice. […]

[4] = HeLa-MaTu; b) 2.5 mg/kg oral 2× per day on 2 successive days, followed by 5 treatment-free days

Compound | IC50 (MOLM-13) [nM] | TGITW (tumor growth inhibition from tumor weights) ([1]; A2780-Cis; a) 2.0 mg/kg oral 1× per day) [%] | TGITW (tumor growth inhibition from tumor weights) ([1]; A2780-Cis; b) 1.5 mg/kg oral 2× per day on 3 successive days, followed by 4 treatment-free days) [%] | TGITW (tumor growth inhibition from tumor weights) ([1]; A2780-Cis; c) 1.7 mg/kg oral 2× per day on 3 successive days, followed by 4 treatment-free days) [%] | TGITW (tumor growth inhibition from tumor weights) ([2]; HeLa-MaTu; a) 2.0 mg/kg oral 1× per day) [%] | TGITW (tumor growth inhibition from tumor weights) [2, 4] [%] | tumor regression observation [2, 4] | TGITW (tumor growth inhibition from tumor weights) ([3]; NCI-H146; a) 2.0 mg/kg oral 1× per day) [%] | TGITW (tumor growth inhibition from tumor weights) ([3]; NCI-H146; b) 2.0 mg/kg oral 2× per day on 2 successive days, followed by 5 treatment-free days) [%]
C[C@@H](O)[C@@H](C)Oc1nc(Nc2ccc(S(C)(=N)=O)cc2)ncc1C(F)(F)F (single isomer, unassigned) [Example 2-SI-2] | 9 |  |  |  |  |  |  |  | 
C[C@@H](O)[C@@H](C)Oc1nc(Nc2ccc(S(C)(=N)=O)cc2)ncc1C(F)(F)F (mixture of isomers) [Example 2-SI-2, (RS)—S-(4-{[4-{[(1R,2R)-2-Hydroxy-1-methylpropyl]oxy}-5-(trifluoromethyl)pyrimidin-2-yl]-amino}phenyl)-S-methylsulfoximide] |  | 85 | 88 | 92 | 97 | 98 | signs of tumor regression | 95 | 82
